According to ChEMBL document CHEMBL1255463, “Attenuation of colistin bactericidal activity by high inoculum of Pseudomonas aeruginosa characterized by a new mechanism-based population pharmacodynamic model” (Antimicrob Agents Chemother, 2010):
Active and inactive are the calls of the source. No cut-off for these calls is given here.

Experiments:
Type in all cases: functional, organism-based
Pseudomonas aeruginosa [1] = assay: Antimicrobial activity against 10^6 CFU/ml Pseudomonas aeruginosa PAO1 after 24 hrs by time-kill assay
Pseudomonas aeruginosa [2] = assay: Antimicrobial activity against 10^6 CFU/ml Pseudomonas aeruginosa URMC1 after 24 hrs by time-kill assay
Pseudomonas aeruginosa [3] = assay: Antimicrobial activity against 10^6 CFU/ml Pseudomonas aeruginosa URMC2 after 24 hrs by time-kill assay
Pseudomonas aeruginosa [4] = assay: Bactericidal activity against 10^6 CFU/ml Pseudomonas aeruginosa PAO1 at 1 to 4 times MIC up to 1 hr by time-kill assay
Pseudomonas aeruginosa [5] = assay: Bactericidal activity against 10^6 CFU/ml Pseudomonas aeruginosa URMC1 at 1 to 4 times MIC up to 1 hr by time-kill assay
Pseudomonas aeruginosa [6] = assay: Bactericidal activity against 10^6 CFU/ml Pseudomonas aeruginosa URMC2 at 1 to 4 times MIC up to 1 hr by time-kill assay
Pseudomonas aeruginosa [7] = assay: Bactericidal activity against 10^6 CFU/ml Pseudomonas aeruginosa PAO1 at >= 16 times MIC up to 30 mins by time-kill assay
Pseudomonas aeruginosa [8] = assay: Bactericidal activity against 10^6 CFU/ml Pseudomonas aeruginosa URMC1 at >= 16 times MIC up to 30 mins by time-kill assay
Pseudomonas aeruginosa [9] = assay: Bactericidal activity against 10^6 CFU/ml Pseudomonas aeruginosa URMC2 at >= 16 times MIC up to 30 mins by time-kill assay
Pseudomonas aeruginosa [10] = assay: Antimicrobial activity against 10^9 CFU/ml Pseudomonas aeruginosa PAO1 after 8 to 12 hrs by time-kill assay
Pseudomonas aeruginosa [11] = assay: Antimicrobial activity against 10^6 CFU/ml Pseudomonas aeruginosa PAO1 at 2 to 16 mg/L after 24 hrs by time-kill assay
Pseudomonas aeruginosa [12] = assay: Antimicrobial activity against 10^8 CFU/ml Pseudomonas aeruginosa PAO1 at 4 to 32 mg/L after 24 hrs by time-kill assay
Pseudomonas aeruginosa [13] = assay: Antimicrobial activity against 10^9 CFU/ml Pseudomonas aeruginosa PAO1 at 4 to 128 mg/L after 24 hrs by time-kill assay
Pseudomonas aeruginosa [14] = assay: Antimicrobial activity against 10^9.4 CFU/ml Pseudomonas aeruginosa PAO1 at 16 mg/L after 0.75 hrs by time-kill assay
Pseudomonas aeruginosa [15] = assay: Antimicrobial activity against 10^9.4 CFU/ml Pseudomonas aeruginosa PAO1 at 64 mg/L after 0.75 hrs by time-kill assay
Pseudomonas aeruginosa [16] = assay: Antimicrobial activity against 10^9.4 CFU/ml Pseudomonas aeruginosa PAO1 at 16 mg/L after 24 hrs by time-kill assay
Pseudomonas aeruginosa [17] = assay: Antimicrobial activity against 10^9.4 CFU/ml Pseudomonas aeruginosa PAO1 at 64 mg/L after 24 hrs by time-kill assay
Pseudomonas aeruginosa [18] = assay: Antimicrobial activity against Pseudomonas aeruginosa assessed as destabilization of bacterial outer membrane by receptor occupancy assay
Pseudomonas aeruginosa [19] = assay: Antimicrobial activity against 10^8 CFU/ml Pseudomonas aeruginosa PAO1 after 24 hrs by time-kill assay
Pseudomonas aeruginosa [20] = assay: Antimicrobial activity against 10^8 CFU/ml Pseudomonas aeruginosa URMC1 after 24 hrs by time-kill assay
Pseudomonas aeruginosa [21] = assay: Antimicrobial activity against 10^8 CFU/ml Pseudomonas aeruginosa URMC2 after 24 hrs by time-kill assay
Pseudomonas aeruginosa [22] = assay: Antimicrobial activity against 10^9 CFU/ml Pseudomonas aeruginosa PAO1 after 24 hrs by time-kill assay
Pseudomonas aeruginosa [23] = assay: Antimicrobial activity against 10^9 CFU/ml Pseudomonas aeruginosa URMC1 after 24 hrs by time-kill assay
Pseudomonas aeruginosa [24] = assay: Antimicrobial activity against 10^9 CFU/ml Pseudomonas aeruginosa URMC2 after 24 hrs by time-kill assay

Sequence: COLISTIN [listing 1 of 2 here]
- Activity (Pseudomonas aeruginosa [1]): Dose-dependent effect
- Activity (Pseudomonas aeruginosa [2]): Dose-dependent effect
- Activity (Pseudomonas aeruginosa [3]): Dose-dependent effect
- Activity (Pseudomonas aeruginosa [4]): Active
- Activity (Pseudomonas aeruginosa [5]): Active
- Activity (Pseudomonas aeruginosa [6]): Active
- Activity (Pseudomonas aeruginosa [7]): Active
- Activity (Pseudomonas aeruginosa [8]): Active
- Activity (Pseudomonas aeruginosa [9]): Active
- Activity (Pseudomonas aeruginosa [10]): inactive
- Activity (Pseudomonas aeruginosa [11]): inactive
- Activity (Pseudomonas aeruginosa [12]): inactive
- Activity (Pseudomonas aeruginosa [13]): inactive
- log10CFU/ml (Pseudomonas aeruginosa [14]): > 5
- log10CFU/ml (Pseudomonas aeruginosa [15]): > 5
- log10CFU/ml (Pseudomonas aeruginosa [16]): 5
- log10CFU/ml (Pseudomonas aeruginosa [17]): > 5
- Activity (Pseudomonas aeruginosa [18]): 53.7%

Sequence: COLISTIN [listing 2 of 2 here]
- EC50 (Pseudomonas aeruginosa [1]): 0.777 µg/mL
- EC50 (Pseudomonas aeruginosa [2]): 0.736 µg/mL
- EC50 (Pseudomonas aeruginosa [3]): 1.15 µg/mL
- EC50 (Pseudomonas aeruginosa [19]): 1.49 µg/mL
- EC50 (Pseudomonas aeruginosa [20]): 2.69 µg/mL
- EC50 (Pseudomonas aeruginosa [21]): 2.56 µg/mL
- EC50 (Pseudomonas aeruginosa [22]): 6.22 µg/mL
- EC50 (Pseudomonas aeruginosa [23]): 4.62 µg/mL
- EC50 (Pseudomonas aeruginosa [24]): 3.5 µg/mL
